According to PubChem BioAssay (NCI):
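Cells were grown in 96-well plates and exposed to each compound for 48 hours at five concentrations; endpoints were interpolated linearly between bracketing concentrations, or set to the highest concentration if not reached. GI50 is the concentration that inhibits growth by half. Definition used: TGI = concentration required for complete inhibition of growth.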

Legend:
Test in all cases: NCI tumour cell line growth inhibition, 48 h
SF-268 CNS = test system: SF-268 CNS
MALME-3M melanoma = test system: MALME-3M melanoma
NCI/ADR-RES ovarian = test system: NCI/ADR-RES ovarian
MCF7 breast = test system: MCF7 breast
NCI-H522 lung = test system: NCI-H522 lung
EKVX NSCLC = test system: EKVX NSCLC
UACC-62 melanoma = test system: UACC-62 melanoma
MDA-MB-231 breast = test system: MDA-MB-231 breast
CCRF-CEM leukemia = test system: CCRF-CEM leukemia
HOP-62 NSCLC = test system: HOP-62 NSCLC
MDA-MB-435 = test system: MDA-MB-435
KM12 colon = test system: KM12 colon
HCT-15 colon = test system: HCT-15 colon
SK-OV-3 ovarian = test system: SK-OV-3 ovarian
RXF 393 renal = test system: RXF 393 renal
MOLT-4 leukemia = test system: MOLT-4 leukemia
SW-620 colon = test system: SW-620 colon
OVCAR-8 ovarian = test system: OVCAR-8 ovarian
HCT-116 colon = test system: HCT-116 colon
OVCAR-5 ovarian = test system: OVCAR-5 ovarian
M14 melanoma = test system: M14 melanoma
SR leukemia = test system: SR leukemia
COLO 205 colon = test system: COLO 205 colon
UACC-257 melanoma = test system: UACC-257 melanoma
NCI-H226 lung = test system: NCI-H226 lung
HCC-2998 colon = test system: HCC-2998 colon
IGROV1 ovarian = test system: IGROV1 ovarian
LOX IMVI melanoma = test system: LOX IMVI melanoma
HS 578T breast = test system: HS 578T breast
SK-MEL-28 melanoma = test system: SK-MEL-28 melanoma
NCI-H23 lung = test system: NCI-H23 lung
NCI-H460 lung = test system: NCI-H460 lung
RPMI-8226 leukemia = test system: RPMI-8226 leukemia
SNB-19 CNS = test system: SNB-19 CNS
SNB-75 CNS = test system: SNB-75 CNS
T-47D breast = test system: T-47D breast
SF-539 CNS = test system: SF-539 CNS
BT-549 breast = test system: BT-549 breast
UO-31 renal = test system: UO-31 renal
SK-MEL-5 melanoma = test system: SK-MEL-5 melanoma
DU-145 prostate = test system: DU-145 prostate
A549 NSCLC = test system: A549 NSCLC
786-0 renal = test system: 786-0 renal
OVCAR-3 ovarian = test system: OVCAR-3 ovarian
PC-3 prostate = test system: PC-3 prostate
ACHN renal = test system: ACHN renal
K-562 leukemia = test system: K-562 leukemia
SF-295 CNS = test system: SF-295 CNS
SK-MEL-2 melanoma = test system: SK-MEL-2 melanoma
A498 renal = test system: A498 renal
HT29 colon = test system: HT29 colon
TK-10 renal = test system: TK-10 renal
U251 CNS = test system: U251 CNS
CAKI-1 renal = test system: CAKI-1 renal
OVCAR-4 ovarian = test system: OVCAR-4 ovarian
SN12C renal = test system: SN12C renal

Compound: CCOC(=O)CC1C(CNC(=O)NC)OC(n2cnc3c(NC(=O)Nc4ccccc4)ncnc32)C1O[Si](C)(C)C(C)(C)C (configuration not stated)
- GI50 (SF-268 CNS): 6.53 µM
- TGI (SF-268 CNS): 27 µM
- GI50 (MALME-3M melanoma): 10.3 µM
- TGI (MALME-3M melanoma): > 100 µM
- GI50 (NCI/ADR-RES ovarian): > 100 µM
- TGI (NCI/ADR-RES ovarian): > 100 µM
- GI50 (MCF7 breast): 3.42 µM
- TGI (MCF7 breast): 45.1 µM
- GI50 (NCI-H522 lung): 4.36 µM
- TGI (NCI-H522 lung): 85.7 µM
- GI50 (EKVX NSCLC): 17.7 µM
- TGI (EKVX NSCLC): > 100 µM
- GI50 (UACC-62 melanoma): > 100 µM
- TGI (UACC-62 melanoma): > 100 µM
- GI50 (MDA-MB-231 breast): 3.96 µM
- TGI (MDA-MB-231 breast): 41.3 µM
- GI50 (CCRF-CEM leukemia): 6.69 µM
- TGI (CCRF-CEM leukemia): 88.6 µM
- GI50 (HOP-62 NSCLC): 8.96 µM
- TGI (HOP-62 NSCLC): 26.4 µM
- GI50 (MDA-MB-435): 6.21 µM
- TGI (MDA-MB-435): > 100 µM
- GI50 (KM12 colon): 3.95 µM
- TGI (KM12 colon): 20.9 µM
- GI50 (HCT-15 colon): 8.5 µM
- TGI (HCT-15 colon): > 100 µM
- GI50 (SK-OV-3 ovarian): 21 µM
- TGI (SK-OV-3 ovarian): > 100 µM
- GI50 (RXF 393 renal): 2.01 µM
- TGI (RXF 393 renal): 4.63 µM
- GI50 (MOLT-4 leukemia): 2.39 µM
- TGI (MOLT-4 leukemia): 23.3 µM
- GI50 (SW-620 colon): 4.8 µM
- TGI (SW-620 colon): 28.4 µM
- GI50 (OVCAR-8 ovarian): 4.92 µM
- TGI (OVCAR-8 ovarian): 77.2 µM
- GI50 (HCT-116 colon): 3.2 µM
- TGI (HCT-116 colon): 16.1 µM
- GI50 (OVCAR-5 ovarian): 31.1 µM
- TGI (OVCAR-5 ovarian): > 100 µM
- GI50 (M14 melanoma): 2.51 µM
- TGI (M14 melanoma): 11.6 µM
- GI50 (SR leukemia): 2.23 µM
- TGI (SR leukemia): 7.07 µM
- GI50 (COLO 205 colon): 3.84 µM
- TGI (COLO 205 colon): > 100 µM
- GI50 (UACC-257 melanoma): 5.68 µM
- TGI (UACC-257 melanoma): > 100 µM
- GI50 (NCI-H226 lung): > 100 µM
- TGI (NCI-H226 lung): > 100 µM
- GI50 (HCC-2998 colon): > 100 µM
- TGI (HCC-2998 colon): > 100 µM
- GI50 (IGROV1 ovarian): 3.85 µM
- TGI (IGROV1 ovarian): 18 µM
- GI50 (LOX IMVI melanoma): 5.46 µM
- TGI (LOX IMVI melanoma): > 100 µM
- GI50 (HS 578T breast): 3.6 µM
- TGI (HS 578T breast): 53.6 µM
- GI50 (SK-MEL-28 melanoma): 6.85 µM
- TGI (SK-MEL-28 melanoma): 20.2 µM
- GI50 (NCI-H23 lung): 33.3 µM
- TGI (NCI-H23 lung): > 100 µM
- GI50 (NCI-H460 lung): 5.53 µM
- TGI (NCI-H460 lung): 25 µM
- GI50 (RPMI-8226 leukemia): 1.09 µM
- TGI (RPMI-8226 leukemia): 4.57 µM
- GI50 (SNB-19 CNS): 29 µM
- TGI (SNB-19 CNS): > 100 µM
- GI50 (SNB-75 CNS): 4.56 µM
- TGI (SNB-75 CNS): > 100 µM
- GI50 (T-47D breast): 2.55 µM
- TGI (T-47D breast): > 100 µM
- GI50 (SF-539 CNS): 5.19 µM
- TGI (SF-539 CNS): > 100 µM
- GI50 (BT-549 breast): > 100 µM
- TGI (BT-549 breast): > 100 µM
- GI50 (UO-31 renal): 12.1 µM
- TGI (UO-31 renal): 29.5 µM
- GI50 (SK-MEL-5 melanoma): 4.34 µM
- TGI (SK-MEL-5 melanoma): > 100 µM
- GI50 (DU-145 prostate): 4.97 µM
- TGI (DU-145 prostate): 19.4 µM
- GI50 (A549 NSCLC): 4.18 µM
- TGI (A549 NSCLC): 19.2 µM
- GI50 (786-0 renal): 2 µM
- TGI (786-0 renal): 5.21 µM
- GI50 (OVCAR-3 ovarian): 4.59 µM
- TGI (OVCAR-3 ovarian): 17.2 µM
- GI50 (PC-3 prostate): 2.25 µM
- TGI (PC-3 prostate): 4.85 µM
- GI50 (ACHN renal): 8.55 µM
- TGI (ACHN renal): > 100 µM
- GI50 (K-562 leukemia): 3.59 µM
- TGI (K-562 leukemia): 32.9 µM
- GI50 (SF-295 CNS): 5.73 µM
- TGI (SF-295 CNS): > 100 µM
- GI50 (SK-MEL-2 melanoma): 5.42 µM
- TGI (SK-MEL-2 melanoma): 33.1 µM
- GI50 (A498 renal): 3.35 µM
- TGI (A498 renal): 17.1 µM
- GI50 (HT29 colon): 4.2 µM
- TGI (HT29 colon): > 100 µM
- GI50 (TK-10 renal): 12.4 µM
- TGI (TK-10 renal): 40.5 µM
- GI50 (U251 CNS): 4.69 µM
- TGI (U251 CNS): 20.9 µM
- GI50 (CAKI-1 renal): 29.7 µM
- TGI (CAKI-1 renal): > 100 µM
- GI50 (OVCAR-4 ovarian): 12.3 µM
- TGI (OVCAR-4 ovarian): > 100 µM
- GI50 (SN12C renal): 9.1 µM
- TGI (SN12C renal): > 100 µM
